We go through nine molecules from paper PMC11988671, “SIRT7 Is a Lysine Deacylase with a Preference for Depropionylation and Demyristoylation” (International Journal of Molecular Sciences, 2025).

Experiment [1] concerns the target T1, SIRT7 (Mus musculus, UniProt Q8BKJ9).
T1 sequence (Q8BKJ9 1-402): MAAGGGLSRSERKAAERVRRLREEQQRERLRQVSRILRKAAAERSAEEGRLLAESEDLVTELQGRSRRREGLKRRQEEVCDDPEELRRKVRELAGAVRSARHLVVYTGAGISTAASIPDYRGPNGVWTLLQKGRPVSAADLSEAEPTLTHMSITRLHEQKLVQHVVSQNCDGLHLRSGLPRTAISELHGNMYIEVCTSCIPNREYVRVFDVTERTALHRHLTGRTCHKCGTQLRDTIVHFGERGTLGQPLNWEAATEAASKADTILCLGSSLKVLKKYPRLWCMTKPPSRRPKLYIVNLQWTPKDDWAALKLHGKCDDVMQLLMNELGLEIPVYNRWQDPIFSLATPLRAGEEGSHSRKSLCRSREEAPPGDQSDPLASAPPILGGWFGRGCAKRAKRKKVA
Put plainly: In vitro deacylation assay of acyl-modified H3K18 peptides by SIRT7 (LC-MS/MS). The format is biochemical. Conditions: 8 μM peptide (glutaryl 100 µM), 1.0 mM NAD^+, RNA, 24 h, 37 °C. Set-up: HaloTag (N, cleaved yes); made in house; host or cells: E. coli K12 KRX. Here is the method:
(§1) In the case of the SIRT1 enzymatic reaction, 8 µM peptide was incubated in 50 µL reaction buffer containing 10 mM NaCl, 10 mM KCl, 20 mM Tris-HCl pH 8.0, 1.0 mM NAD^+, and 1 mM DTT, with or without 1 µg recombinant SIRT1. The reaction mixtures were incubated for 24 h for SIRT7 or 2 h for SIRT1 at 37 °C.
(§2) The general conditions for electrospray ionization-MS were as follows: nebulizer gas, N2, delivered at 50 psi; nebulizer gas temperature, 250 °C; capillary voltage, 3500 V; and collision gas, G1 grade N2 (Taiyo Nippon Sanso Corporation, Tokyo, Japan).

Experiment [2] relates to Cd36 and Cidec expression in Hepa1–6 cells. Put plainly: Cellular gene expression (real-time quantitative PCR). Format: cell-based. Conditions: FK866 8 nM, 48 h. As for the experimental part: Hepa1–6 cells were exposed to 8 nM FK866 for 48 h, and the cells were incubated without fetal bovine serum for the final 24 h of treatment. Subsequently, total RNA was extracted from the cells utilizing the Sepasol RNA I Super Reagent (Nacalai Tesque). Quantitative reverse transcription (RT)-PCR was conducted using a PrimeScript RT Reagent Kit (RR047A; TaKaRa Bio, Inc., Kusatsu, Japan) followed by TB Green Premix Ex TaqII (RR820A; TaKaRa Bio, Inc.) and an ABI ViiA 7 Real-Time PCR System (Applied Biosystems, Inc., Foster City, CA, USA). The relative expression level of each gene was normalized to that of TATA box-binding protein (Tbp). The following primer sequences were used: Cd36, forward 5′-TTGGCCAAGCTATTGCGACA-3′ and reverse 5′-CTGGAGGGGTGATGCAAAGG-3′; Cidec, forward 5′-GCTGAAGGGGCAGAAGTGGA-3′ and reverse 5′-GCGCTTGGCCTTGTAGCAGT-3′; and Tbp, forward 5′-CCCCTTGTACCCTTCACCAAT-3′ and reverse 5′-GAAGCTGCGGTACAATTCCAG-3′.

Experiment [3] concerns HEK293T cells. The experiment is described as follows: NAD^+ assay in cells treated with FK866. The format is cell-based. As for the experimental part: HEK293T and Hepa1–6 cells were treated with the NAMPT inhibitor FK866 (500 pM and 8 nM, respectively), and NAD^+ and total NAD^+/NADH cellular levels were determined using an NAD^+/NADH Assay Kit-WST (#N509; Dojindo Laboratories, Kumamoto, Japan). Total NAD^+/NADH and NADH concentrations in one sample were calculated from the calibration curve, then the NAD^+ level was determined by subtracting the NADH value from the total NAD^+/NADH level.

The test system of experiment [4] is SIRT1-dependent PPARα deacetylation in HEK293T cells. The experiment is described as follows: SIRT1-dependent PPARα deacetylation (IP and Western blot). Conditions: FK866 500 pM. The format is cell-based. As for the experimental part: (§3) HEK293T cells were treated with FK866 or DMSO for 24 h and transfected with the indicated plasmids using JetPRIME reagents (Polypus, Illkirch-Graffenstaden, France) for an additional 24 h. The cells were lysed in IP buffer (20 mM Tris-HCl pH 7.4, 200 mM NaCl, 2.5 mM MgCl2, 0.05% NP-40, 1 mM PMSF, and protease inhibitor cocktail (Nacalai Tesque)) supplemented with 5 mM NAM and 2.5 µM trichostatin A. The lysate was incubated on ice for 20 min and subsequently sonicated twice at 4 °C with a 20 s interval at 26% amplitude using a Sonifier SFX-150 (Branson Ultrasonics) to disrupt the cells. Following sonication, the lysate was centrifuged at 14,000× g for 15 min at 4 °C to separate cellular debris. For immunoprecipitation, 2 mg protein from each sample was incubated with anti-HA- or anti-DYKDDDDK (FLAG)-tagged beads (Fujifilm Wako Pure Chemical Corp.) for 18 h at 4 °C with gentle rotation. After washing with IP buffer, the proteins were eluted in SDS sample buffer, and lysine acetylation was detected by Western blot with an anti-acetylated lysine antibody.
(§4) For Western blot, proteins were separated by SDS-PAGE and transferred to an Immobilon-P PVDF membrane (Merck Millipore, Burlington, MA, USA), which was probed with primary and secondary antibodies. […]
A general note: A western blot detects proteins with antibodies after separation by electrophoresis.

Experiment [5] deals with SIRT7-dependent DDB1 deacetylation in HEK293T cells. The experiment is described as follows: SIRT7-dependent DDB1 deacetylation (IP and Western blot). Format: cell-based. Conditions: FK866 500 pM. Here is the method: as §3, §4
Experiment [6] has as its target T1, SIRT7. Put plainly: NAM inhibition assay (in vitro deacylation, LC-MS/MS). Conditions: for IC50: IC50, NAM (relative IC50), wild-type SIRT7.
For experiment [7], the target named is T2, SIRT1 (Mus musculus, UniProt Q923E4).
T2 construct: HaloTag (N, cleaved yes); made in house; host or cells: E. coli K12 KRX
T2 sequence (Q923E4 1-737): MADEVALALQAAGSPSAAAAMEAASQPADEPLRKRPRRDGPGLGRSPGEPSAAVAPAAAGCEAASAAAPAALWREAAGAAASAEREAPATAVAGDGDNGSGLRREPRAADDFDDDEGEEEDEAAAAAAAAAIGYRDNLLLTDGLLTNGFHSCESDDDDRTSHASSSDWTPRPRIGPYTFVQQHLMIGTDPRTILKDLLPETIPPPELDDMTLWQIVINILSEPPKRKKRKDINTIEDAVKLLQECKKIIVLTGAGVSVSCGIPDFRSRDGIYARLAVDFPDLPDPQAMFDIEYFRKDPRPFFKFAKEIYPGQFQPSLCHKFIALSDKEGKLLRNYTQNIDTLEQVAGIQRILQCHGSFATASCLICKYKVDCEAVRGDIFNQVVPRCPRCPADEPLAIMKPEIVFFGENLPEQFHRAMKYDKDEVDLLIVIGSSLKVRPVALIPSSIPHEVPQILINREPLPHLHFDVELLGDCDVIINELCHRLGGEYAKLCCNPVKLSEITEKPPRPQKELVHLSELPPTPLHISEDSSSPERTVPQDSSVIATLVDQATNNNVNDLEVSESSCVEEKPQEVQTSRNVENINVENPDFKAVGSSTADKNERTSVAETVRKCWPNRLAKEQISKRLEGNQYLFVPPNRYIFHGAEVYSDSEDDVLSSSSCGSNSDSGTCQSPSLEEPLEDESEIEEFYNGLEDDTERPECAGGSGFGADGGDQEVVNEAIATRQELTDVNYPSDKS
Put plainly: In vitro deacetylation assay of H3K9Ac peptide by SIRT1 (LC-MS/MS). The format is biochemical. Conditions: 8 µM peptide, 1.0 mM NAD^+, 2 h, 37 °C. As for the experimental part:
as §1, §2

The test system of experiment [8] is SIRT5. Set-up: method as in PMID 23028781. Conditions: read-out: Km of SIRT5 for NAD^+; cited from earlier work.
The test system of experiment [9] is SIRT4. Set-up: method as in PMID 23746352. Conditions: read-out: Km of SIRT4 for NAD^+; cited from earlier work.
Experiment [10] deals with SIRT7-DNA and SIRT7-RNA. Set-up: method as in PMID 35939806. Conditions: compared with own H3K18Ac value in presence of RNA; read-out: Km, NAD^+ for SIRT7, previously reported value; cited from earlier work.
The test system of experiment [11] is SIRT1. Conditions: compared with own H3K9Ac value; read-out: Km, NAD^+ for SIRT1, value reported previously; cited from earlier work.
The mark [12] stands for this setting: succinyl H3K18 peptide substrate.

Values joined by “and” are separate entries in the source; they are usually repeats but may differ in a detail not shown here. Equal entries are not always repeated.

“NH2-KSTGGKAPRK^MyristoylQLATKAARKS-COOH [myristoyl H3K18 peptide]”: in experiment [1], the “Hydrolysis of acyl H3K18 peptide by SIRT7” value (from here on “Hydrolysis”) is recorded as “catalyzed the hydrolysis”.

As for `O=C(/C=C/c1cccnc1)NCCCCC1CCN(C(=O)c2ccccc2)CC1` [FK866], in experiment [2], the Cd36 expression result is “significantly decreased” and the Cidec expression result is on record as “significantly decreased”. Moreover, the “Cellular NAD^+ levels” value in experiment [3] is “decreased”. Besides, in experiment [4], the “Deacetylation of PPARα by SIRT1” value is reported as “not abolished”. Moreover, the “SIRT7-mediated DDB1 deacetylation” value in experiment [5] was “abolished”.

In the case of “NH2-KSTGGKAPRK^GlutarylQLATKAARKS-COOH [glutaryl peptide]”, the “Hydrolysis” value in [1] was “not detected”.

Broadly, the IC50 is the concentration that gives 50% inhibition. `NC(=O)c1cccnc1` [NAM, Nicotinamide]: the 50% inhibitory concentration (IC50) in [6] (acetyl H3K18 peptide substrate) was 23 µM and 23.2 µM; in experiment [6] (butyryl H3K18 peptide substrate), 613 ± 63.8 µM; in experiment [6] (myristoyl H3K18 peptide substrate), 286 ± 25.1 µM; in experiment [6] (octanoyl H3K18 peptide substrate), 1110 ± 216 µM; in experiment [6] (palmitoyl H3K18 peptide substrate) it was 544 ± 83.7 µM; in experiment [6] (propionyl H3K18 peptide substrate), 787 ± 118 µM. The IC50 in experiment [6] (setting [12]) came to 1230 ± 268 µM. Further, the “NAM inhibition of the desuccinylation reaction” value in [6] (setting [12]) is reported as “did not completely inhibit”.

Consider “NH2-KSTGGKAPRK^OctanoylQLATKAARKS-COOH [octanoyl H3K18 peptide]”, for which the “Hydrolysis” value in [1] was “catalyzed the hydrolysis”.

For “NH2-KSTGGKAPRK^ButyrylQLATKAARKS-COOH [butyryl H3K18 peptide]”, the “Hydrolysis” value in experiment [1] is reported as “catalyzed the hydrolysis”.

For “NH2-ARTKQTARK^AcetylSTGGKAPRKQLC-COOH [H3K9Ac]”, in experiment [7], the “Loss of H3K9Ac peptide and formation of deacetylated H3K9 peptide with recombinant SIRT1” value is reported as “detected”.

Consider “NH2-KSTGGKAPRK^SuccinylQLATKAARKS-COOH [succinyl H3K18 peptide]”, for which, in [1], the “Hydrolysis” value was “catalyzed the hydrolysis”.

One may read the Km as the concentration of substrate that gives half-maximal velocity. Consider `NC(=O)c1ccc[n+]([C@@H]2O[C@H](COP(=O)([O-])OP(=O)(O)OC[C@H]3O[C@@H](n4cnc5c(N)ncnc54)[C@H](O)[C@@H]3O)[C@@H](O)[C@H]2O)c1` [NAD^+, Nicotinamide adenine dinucleotide], for which the Michaelis-Menten constant (Km) in experiment [8] is 980 µM; in experiment [9], 35 µM; in [10] it was 480 µM; in experiment [11], 29 µM.
